One data set deals with EBV-LPD. As to the kind of experiment: hu-PBL-SCID model of EBV-LPD. In kind it is in vivo, SCID mice. The procedure: Six week-old female SCID mice (n=28) received anti-asialo antisera prior to engraftment to deplete murine NK cells. Mice were engrafted intraperitoneally with 5×10^7 peripheral blood mononuclear cells (PBMCs) obtained from EBV-positive, healthy donor. Untreated mice in this model develop lethal disseminated (human) lymphoma; median survival varies by PBMC donor for that experiment. Two weeks post-engraftment, treatments were initiated with either vehicle (30% HBPCD) or vehicle+silvestrol (1.5 mg/kg every 48 hrs; n=14 each). 4 and 8 weeks post-engraftment, 2 mice from each group were sacrificed for examination and blood was drawn from all mice to assess human IgG levels (FIG. 23). The remainder of mice (n=10 each) were followed for survival. Survival is defined as absence of IACUC-approved euthanasia criteria (in this model, typically this is weight loss >20%, together with labored breathing and cessation of grooming).
The Hu-PBL-SCID mouse model has been described (Mosier 1992). Human PBMCs were obtained from a healthy EBV seropositive donor. 5×10^7 cells were injected intraperitoneally (IP) into 6 week-old female SCID mice (Taconic) that were NK cell-depleted by pretreatment with anti-asialo (GM1) (Wako Pure Chemical Industries, Richmond, Va.). Engraftment was confirmed by hu-IgG ELISA from serum as described (Baiocchi 1994). Silvestrol treatment began two weeks post-engraftment.
The hu-PBL SCID model has been used to study the effect of compounds on spontaneously derived EBV-driven lymphomas (Fuzzati-Armentero 1998). PBMC from a healthy EBV-positive donor were injected into a group of SCID mice that had been pretreated with anti-asialo (GM1) to deplete murine NK cells. Mice were randomized (n=14/group) and treatment with 1.5 mg/kg silvestrol or vehicle control every 48 hr began two weeks after engraftment. Two weeks after treatment began (four weeks post-engraftment), an ELISA was performed to evaluate human IgG. […] At 4 and 8 weeks post-engraftment, flow cytometry analysis was performed on spleen cells from two mice in each group. […] Spleens were also obtained from mice as the disease progressed and euthanasia criteria were met. […] During the 140-day experiment, the health of the mice was tracked by body weight. Weights of all mice were checked twice weekly.

Data set [1] can be described thus: Pharmacokinetics work in mice. In kind it is in vivo.
Another data set relates to EBNA2, EBNA3C, BZLF1. As to the kind of experiment: Immunoblot of other EBV proteins in LCL. The format is cell-based, Epstein-Barr virus. The following applies: FIG. 3C. The procedure:
Cells were harvested and lysed as described (Alinari 2011). Following collection of whole cell lysates, equal amounts of protein were resolved by SDS-PAGE and transferred onto a PVDF membrane (Millipore, Billerica, Mass.). Membrane was probed overnight at 4° C. with β-actin, pSTAT1, pSTAT3, STAT1, STAT3, pAkt, Akt (Cell Signaling Technology, Danvers, Mass.), or LMP-1 (DakoCytomation, Carpinteria, Calif.). After incubation with HRP-conjugated secondary antibody (Cell Signaling Technology), protein was detected with SuperSignal West Pico Chemiluminescent Substrate (Pierce, Rockford, Ill.).
Whole cell protein levels of LMP-1 was evaluated by immunoblot 72 hr after treating with a single dose (10 nM) of silvestrol in seven LCL lines (FIG. 3A). β-actin was included as a loading control. In FIG. 3B, LCL were incubated 24, 72, and 120 hr in the presence of 10 nM silvestrol or vehicle control. Whole cell lysates were immunoblotted for LMP-1. Results are representative of 3 LCL lines. […] Decreases in other latent gene products involved with EBV-driven B cell transformation were observed as well. In FIG. 3D, LCL were incubated as in FIG. 3B and immunoblotted for STAT1, STAT3, AKT and NF-κB p65.

The test system of a further data set is interleukin-6. As to the kind of experiment: Real-time RT-PCR for NF-κB targets in LCL. The following applies: 10 nM in LCL (FIG. 45). In kind it is cell-based, human. The text has this: FIG. 41 presents data regarding NK cytotoxicity of K562 cells. […] FIG. 42 presents data regarding the cytotoxicity of LCLs pretreated with BZLF 1. […] BZLF1 antigen pulsed LCLs promoted enhanced killing in untreated and silvestrol-treated CTLs. FIG. 43 presents data relating to CD4 IFNgamma release with LCL pretreated with BZLF1. […] FIG. 44 presents data relating to CD4 IFNgamma release with LCL pretreated with BZLF 1. […] FIG. 45 presents data relating to interleukin-6 induction by silvestrol. […] FIG. 46 presents data relating to a change in LMP-1 expression following silvestrol treatment. […] Three cell lines were examined on days 1, 3, and 5 following treatment. FIG. 47 presents data relating to a change in EBNA1 expression following silvestrol treatment. Three cell lines were examined on days 1, 3, and 5 following treatment.

For data set [2], the system named is EBV-positive lymphoblastoid cell lines (LCL). As to the kind of experiment: Apoptosis/viability by annexin/PI flow cytometry. The format is cell-based, human. The following applies: 2-50 nM; 24, 72, 120 hr; p=0.006 averaged over doses and time points. The procedure: Cells from irradiated or non-irradiated co-cultures were co-stained with LIVE/DEAD cell stain (Invitrogen, Grand Island, N.Y.) and hu-CD3-APC and either hu-CD4-PE, hu-CD-8-PE, hu-CD19-PE (BD Biosciences, San Diego, Calif.), or hu-CD56-PE (Beckman Coulter, Brea, Calif.). Live events were gathered by gating on cells negative for the LIVE/DEAD stain on an FC500 cytometer (Beckman Coulter). Cell viability was also measured by flow cytometry at 24, 72, and 120 hr using annexin-V-FITC and propidium iodide (PI) according to the manufacturer's instructions (BD Biosciences).
The direct anti-tumor activity of silvestrol in leukemia and lymphoma models has been document (Hwang 2004; Bordeleau 2008; Cencic 2009; Lucas 2009 Alinari 2011; Saradhi 2011) as well as silvestrol's increased cytotoxicity to malignant B cells compared to normal blood lymphocytes (Lucas 2009). However, activity of silvestrol has not previously been described in spontaneous EBV-transformed cell lines. Silvestrol's activity in fully transformed EBV-positive LCL derived from tumors of SCID mice engrafted with PBMC from EBV-seropositive donors was observed. Six of these EBV-LCL lines were plated in the presence of low concentrations of silvestrol (2-50 nM), and apoptosis (viability assessed by annexin/PI flow cytometry) (FIG. 2A) and proliferation (MTS assay) (FIG. 2B) were evaluated at 24, 72, and 120 hr. […]

Where [3] appears, read: 1.5 mg/kg every 48 hr, 140-day experiment.

Regarding `COC(=O)[C@H]1[C@@H](O)[C@@]2(O)c3c(OC)cc(O[C@@H]4O[C@@H]([C@H](O)CO)CO[C@H]4OC)cc3O[C@@]2(c2ccc(OC)cc2)[C@@H]1c1ccccc1` [silvestrol], in the data set on EBV-LPD (1.5 mg/kg every 48 hr), the “signs of disease at the end of the study (flow cytometry of spleen cells)” value is “no signs of disease”. Also, the “engraftment of human PBMCs (human immunoglobulin production)” value in the data set with EBV-LPD (1.5 mg/kg every 48 hr (FIG. 23)) was “did not affect engraftment”. Further, the “EBV-LPD infiltration of the spleen (flow cytometry)” value in the data set on EBV-LPD (1.5 mg/kg every 48 hr, 4 and 8 weeks post-engraftment) is “no tumor burden”. Besides, in the data set with EBV-LPD (setting [3]), the “body weight compared to vehicle-treated mice” value was “gain weight at a faster pace” and the “ill effects from long-term treatment” value is “did not show observable ill effects”. For the same molecule, the mean spleen weight with EBV-LPD (1.5 mg/kg every 48 hr, after completion of the experiment at day 140) was 72.9 mg. Moreover, the “production of human IgG by xenografted B-lymphocytes” value in the data set on EBV-LPD (1.5 mg/kg every 48 hr, four weeks post-engraftment) is “did not affect”. Besides, in the data set with EBV-LPD (1.5 mg/kg every 48 hr, p<0.001 vs. vehicle), the “mice alive at day 140 (overall survival)” value is recorded as 7/7. In data set [1], the “concentration attainable in vivo” value came to 10 nM. In addition, in the data set with EBNA2, EBNA3C, BZLF1, the “EBNA2 and EBNA3C proteins” value is given as “affected”; the “expression of BZLF1” value was “did not affect”. The interleukin-6 expression entry with interleukin-6 is “induced”. The “apoptosis vs. untreated control” value in data set [2] was “Moderate but significant activity”.

The values are drawn from patent publication US20140255432A1, “SILVESTROL, SILVESTROL ANALOGS AND USES THEREOF” (priority 2011, published 2014).
